Experimental data: patent publication US20250134869A1, “Pyrrolo[2,3-d]pyrimidinyl, Pyrrolo[2,3-b]pyrazinyl and Pyrrolo[2,3-d]pyridinyl Acryla-mides” (Pfizer Inc, priority 2021, published 2025)
Read-outs that look alike come from different tables or passages of the source.

Molecular target: JAK3 enzyme (Homo sapiens (Human), UniProt P52333)
Assay: JAK Caliper Enzyme Assay at 4 μM or 1 mM ATP
Format: biochemical
[1] = read-out: JAK3 (4 μM ATP) IC50, 4 μM ATP
[2] = read-out: JAK3 (1 mM ATP) IC50, 1 mM ATP

JAK3 enzyme, sequence (P52333 whole entry, species assumed): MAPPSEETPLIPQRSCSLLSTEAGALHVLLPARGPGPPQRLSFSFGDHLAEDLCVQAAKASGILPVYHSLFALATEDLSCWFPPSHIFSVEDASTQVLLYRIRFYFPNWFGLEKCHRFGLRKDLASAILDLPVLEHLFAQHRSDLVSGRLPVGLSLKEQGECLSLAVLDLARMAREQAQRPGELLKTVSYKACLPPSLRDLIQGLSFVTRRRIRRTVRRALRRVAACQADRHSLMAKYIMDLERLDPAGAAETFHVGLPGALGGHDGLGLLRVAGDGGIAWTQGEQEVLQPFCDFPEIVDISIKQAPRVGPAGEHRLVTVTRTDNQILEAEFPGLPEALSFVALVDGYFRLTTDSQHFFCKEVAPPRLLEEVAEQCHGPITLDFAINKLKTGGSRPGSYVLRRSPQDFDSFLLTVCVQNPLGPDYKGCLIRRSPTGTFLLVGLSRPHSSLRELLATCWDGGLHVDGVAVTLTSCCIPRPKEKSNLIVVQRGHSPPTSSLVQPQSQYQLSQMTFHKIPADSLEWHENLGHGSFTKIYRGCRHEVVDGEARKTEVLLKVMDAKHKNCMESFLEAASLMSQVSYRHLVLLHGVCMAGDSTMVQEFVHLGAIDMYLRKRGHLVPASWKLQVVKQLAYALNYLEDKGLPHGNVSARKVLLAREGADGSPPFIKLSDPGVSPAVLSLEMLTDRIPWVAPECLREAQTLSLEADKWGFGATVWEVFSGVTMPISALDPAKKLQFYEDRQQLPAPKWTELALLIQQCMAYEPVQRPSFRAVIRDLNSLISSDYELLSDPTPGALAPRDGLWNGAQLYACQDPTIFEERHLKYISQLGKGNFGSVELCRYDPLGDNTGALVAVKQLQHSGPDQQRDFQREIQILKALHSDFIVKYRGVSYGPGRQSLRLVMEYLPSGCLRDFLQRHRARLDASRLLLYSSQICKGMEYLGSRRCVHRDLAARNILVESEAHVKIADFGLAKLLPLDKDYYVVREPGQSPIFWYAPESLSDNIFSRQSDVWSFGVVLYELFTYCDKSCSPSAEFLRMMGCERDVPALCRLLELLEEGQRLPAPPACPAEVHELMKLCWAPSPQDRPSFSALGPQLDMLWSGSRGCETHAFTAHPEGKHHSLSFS

| SMILES | IC50 [1] | IC50 [2] |
| --- | --- | --- |
| C=CC(=O)N1C[C@@H](C#N)C[C@@H](Nc2ncnc3[nH]ccc23)C1 [Example 58, (3S,5R)-5-((7H-pyrrolo[2,3-d]pyrimidin-4-yl)amino)-1-acryloylpiperidine-3-carbonitrile] | 2.5 nM | 361 nM |
| C=CC(=O)N1CCN(c2cnc3[nH]cc(C(=O)NC(C)C)c3n2)C(C)(C)C1 [Example 312, 2-(4-acryloyl-2,2-dimethylpiperazin-1-yl)-N-(propan-2-yl)-5H-pyrrolo[2,3-b]pyrazine-7-carboxamide] | 4.5 nM | 592 nM |
| C=CC(=O)N1CCC[C@@H](N(C)c2ncnc3[nH]cc(CCOC)c23)C1 [Example 136, 1-[(3R)-3-{[5-(2-Methoxyethyl)-7H-pyrrolo[2,3-d]pyrimidin-4-yl](methyl)amino]piper-idin-1-yl]prop-2-en-1-one] | 238 nM | – |
| C=CC(=O)N1CCC[C@@H](Nc2ncnc3[nH]cc(C#N)c23)C1 [Example 45, 4-{[(3R)-1-acryloylpiperidin-3-yl]amino}-7H-pyrrolo[2,3-d]pyrimidine-5-carbonitrile] | 1 nM | 168 nM |
| C=CC(=O)N1CCC(Nc2cnc3[nH]cc(C(=O)N[C@@H](C(C)C)[C@H](O)C(F)(F)F)c3n2)CC1 [Example 252, 2-[(1-acryloylpiperidin-4-yl)amino]-N-[(2S,3S)-1,1,1-trifluoro-2-hydroxy-4-methylpentan-3-yl]-5H-pyrrolo[2,3-b]pyrazine-7-carboxamide] | 0.5 nM | 37.2 nM |
| C=C(C(=O)N1CC[C@@H]2CCN(c3ncnc4[nH]ccc34)[C@@H]2C1)C(F)(F)F [Example 41, 1-((3aS,7aS)-1-(7H-Pyrrolo[2,3-d]pyrimidin-4-yl)hexahydro-1H-pyrrolo[2,3-c]pyridin-6 (2H)-yl)-2-(trifluoromethyl)prop-2-en-1-one] | 1 nM | 92.5 nM |
| CN(C)C/C=C/C(=O)N1CCC[C@@H](Nc2ncnc3[nH]cc(CCC#N)c23)C1 [Example 157, 3-[4-({(3R)-1-[(2E)-4-(Dimethylamino)but-2-enoyl]piperidin-3-yl}amino)-7H-pyrrolo[2,3-d]pyrimidin-5-yl]propanenitrile] | 1470 nM | – |

Compounds with a lower IC50 [1], results first:

| IC50 [1] | IC50 [2] | SMILES |
| --- | --- | --- |
| 0.4 nM | 34.8 nM | C=CC(=O)N1CCN(c2cnc3[nH]cc(C(=O)NC(C)C)c3n2)CC1 [Example 174, 2-(4-acryloylpiperazin-1-yl)-N-(propan-2-yl)-5H-pyrrolo[2,3-b]pyrazine-7-carboxamide] |
| 0.3 nM | 25 nM | C=CC(=O)N1CCC(Nc2cnc3[nH]cc(C(=O)NCC4(O)CCCC4)c3n2)CC1 [Example 232, 2-[(1-acryloylpiperidin-4-yl)amino]-N-[(1-hydroxycyclopentyl)methyl]-5H-pyrrolo[2,3-b]pyrazine-7-carboxamide] |
| 0.3 nM | 21.3 nM | C=CC(=O)N1CCC(C)(Nc2cnc3[nH]cc(C(=O)NC(C)C)c3n2)CC1 [Example 318, 2-[(1-acryloyl-4-methylpiperidin-4-yl)amino]-N-(propan-2-yl)-5H-pyrrolo[2,3-b]pyrazine-7-carboxamide] |
| 0.3 nM | 16 nM | C=CC(=O)N1CCC(Nc2cnc3[nH]cc(-c4cncc(F)c4)c3n2)CC1 [Example 212, 1-(4-{[7-(5-fluoropyridin-3-yl)-5H-pyrrolo[2,3-b]pyrazin-2-yl]amino}piperidin-1-yl)prop-2-en-1-one] |
| 0.2 nM | 7.8 nM | C=CC(=O)N1CCC(Nc2cnc3[nH]cc(C(=O)N[C@@H]4CCC[C@H]4F)c3n2)CC1 [Example 237, 2-[(1-acryloylpiperidin-4-yl)amino]-N-[(1R,2R)-2-fluorocyclopentyl]-5H-pyrrolo[2,3-b]pyrazine-7-carboxamide] |
| 0.2 nM | 8.7 nM | C=CC(=O)N1CCC(Nc2cnc3[nH]cc(C(=O)N[C@H](CC)CC#N)c3n2)CC1 [Example 263, 2-[(1-acryloylpiperidin-4-yl)amino]-N-[(2R)-1-cyanobutan-2-yl]-5H-pyrrolo[2,3-b]pyrazine-7-carboxamide] |
